According to ChEMBL document CHEMBL2417368, “Structure-based discovery of novel amide-containing nicotinamide phosphoribosyltransferase (nampt) inhibitors” (J Med Chem, 2013):

Experiments:
[1] = Metabolic stability in mouse liver microsomes assessed as compound remaining at 1 uM after 30 mins LC-MS analysis; format: ADME, Microsome; settings: liver microsomes, read-out: Stability
[2] = Metabolic stability in human liver microsomes assessed as compound remaining at 1 uM after 30 mins LC-MS analysis; format: ADME, Microsome; settings: liver microsomes, read-out: Stability
[3] = tested on: A2780; assay: cells; settings: Homo sapiens, A2780, 72 h
[4] = target: Nicotinamide phosphoribosyltransferase (Homo sapiens, UniProt P43490)
Sequence of Nicotinamide phosphoribosyltransferase (P43490 whole entry): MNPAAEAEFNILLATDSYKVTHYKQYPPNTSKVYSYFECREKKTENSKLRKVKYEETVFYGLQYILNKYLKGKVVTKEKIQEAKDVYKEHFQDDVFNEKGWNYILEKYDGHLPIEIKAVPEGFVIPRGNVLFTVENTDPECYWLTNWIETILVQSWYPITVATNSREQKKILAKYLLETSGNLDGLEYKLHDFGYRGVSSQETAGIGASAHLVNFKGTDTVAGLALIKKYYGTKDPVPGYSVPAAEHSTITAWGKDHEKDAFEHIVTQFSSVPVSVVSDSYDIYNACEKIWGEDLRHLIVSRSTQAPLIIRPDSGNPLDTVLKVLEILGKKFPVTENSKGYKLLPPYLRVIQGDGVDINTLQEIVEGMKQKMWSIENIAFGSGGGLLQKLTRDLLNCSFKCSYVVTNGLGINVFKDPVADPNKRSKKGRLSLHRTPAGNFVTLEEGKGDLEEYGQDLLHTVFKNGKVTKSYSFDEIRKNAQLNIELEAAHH

[5] = in vitro; settings: dog, MDCK
[6] = Fraction unbound in human plasma at 5 uM after 4 hrs by LC-MS/MS analysis; format: ADME, cell-free
[7] = Fraction unbound in mouse plasma at 5 uM after 4 hrs by LC-MS/MS analysis; format: ADME, cell-free
[8] = Intrinsic clearance in CD-1 mouse hepatocytes at 1 uM after 10 mins by LC-MS/MS analysis; format: ADME, cell-based, Hepatocyte; settings: read-out: CLH
[9] = Intrinsic clearance in human hepatocytes at 1 uM after 10 mins by LC-MS/MS analysis; format: ADME, cell-based, Hepatocyte; settings: read-out: CLH

Compound | remaining at 0.5 h, 1 µM [1] [%] | remaining at 0.5 h, 1 µM [2] [%] | IC50 [3] [nM] | IC50 [4] [nM] | Papp A→B at 10 µM [5] [×10⁻⁶ cm/s] | fraction unbound at 4 h, 5 µM [6] | fraction unbound at 4 h, 5 µM [7] | CLint scaled at 1 µM [8] [mL/min/kg] | CLint scaled at 1 µM [9] [mL/min/kg]
O=C(NCc1ccc(S(=O)(=O)c2ccccc2)cc1)c1cc2ccncc2o1 | 30 | 86 | – | – | – | – | – | – | –
O=C(NCc1ccc(S(=O)(=O)c2ccccc2)cc1)c1cc2ccncc2s1 | 21 | 48 | 14 | 7 | – | – | – | – | –
O=C(NCc1ccc(S(=O)(=O)c2ccccc2)cc1)c1cc2ncccc2s1 | 1.6 | 81 | > 10000 | 400 | – | – | – | – | –
O=C(NCc1ccc(S(=O)(=O)c2cccc(C(F)(F)F)c2)cc1)c1cnc2nccn2c1 | 27 | 41 | 2 | 1 | – | – | – | – | –
O=C(NCc1ccc(S(=O)(=O)c2cccc(C(F)(F)F)c2)cc1)c1cc2ccncc2s1 | 35 | 43 | 1 | – | 8 | 0.004 | 0.002 | 73 | 14
O=C(NCc1ccc(S(=O)(=O)c2ccccc2)cc1)c1ccc2nccn2c1 | 18 | 77 | 13 | 18 | – | – | – | – | –
O=C(NCc1ccc(S(=O)(=O)c2cc(F)cc(F)c2)cc1)c1cc2cnccc2[nH]1 | 63 | 82 | – | – | 12 | – | – | 70 | 7
O=C(NCc1ccc(S(=O)(=O)c2ccc(N3CCOCC3)nc2)cc1)c1cc2ccncc2s1 | 23 | 23 | 1 | 3 | – | – | – | – | –
O=C(NCc1ccc(S(=O)(=O)c2cccc(C(F)(F)F)c2)cc1)c1ccc2nccn2c1 | 17 | 26 | 2 | 8 | – | – | – | – | –
O=C(NCc1ccc(S(=O)(=O)c2ccccc2)cc1)c1ccc2cnccc2c1 | 10 | 31 | > 10000 | > 10000 | – | – | – | – | –
Cc1ccccc1S(=O)(=O)c1ccc(CNC(=O)c2cc3cnccc3[nH]2)cc1 | 15 | 48 | 13 | 12 | – | – | – | – | –
O=C(NCc1ccc(S(=O)(=O)N2CCCCC2)cc1)c1ccc2nccn2c1 | 0.28 | 57 | 6 | 28 | – | – | – | – | –
O=C(NCCc1ccc(S(=O)(=O)c2ccccc2)cc1)c1cc2cnccc2[nH]1 | 31 | 64 | 9100 | 970 | – | – | – | – | –
O=C(NCc1ccc(S(=O)(=O)N2CCCCC2)cc1)c1cc2cnccc2o1 | 4.6 | 46 | 1500 | 140 | – | – | – | – | –
O=C(NCc1ccc(S(=O)(=O)N2CCCCC2)cc1)c1ccc2nc[nH]c2c1 | 16 | 53 | > 10000 | 310 | – | – | – | – | –
O=C(NCc1ccc(S(=O)(=O)c2ccc(C(F)(F)F)cc2)cc1)c1cc2cnccc2[nH]1 | 87 | 82 | 26 | 16 | – | – | – | – | –
N#CN=C(NCCCCCCOc1ccc(Cl)cc1)Nc1ccncc1 [CHS-828] | 63 | 61 | – | – | 10 | 0.005 | 0.005 | 21 | 7
O=C(NCc1ccc(S(=O)(=O)c2ccccc2)cc1)c1ccc2ncncc2c1 | 3.7 | 24 | > 10000 | 1900 | – | – | – | – | –
O=C(NCc1ccc(S(=O)(=O)c2ccccc2)cc1)c1ccc2nncn2c1 | 47 | 96 | > 10000 | 370 | – | – | – | – | –
O=C(NCc1ccc(S(=O)(=O)c2ccccc2)cc1)c1ccc2cncn2c1 | 1.7 | 65 | > 10000 | 1500 | – | – | – | – | –
O=C(NCc1ccc(S(=O)(=O)c2ccccc2)cc1)c1c[nH]c2ccncc12 | 45 | > 99 | 2100 | – | – | – | – | – | –
O=C(NCc1ccc(S(=O)(=O)c2ccccc2)cc1)c1cc(-c2cccnc2)[nH]n1 | 42 | 67 | > 10000 | 43 | – | – | – | – | –
O=C(NCc1ccc(S(=O)(=O)c2cccnc2)cc1)c1cc2cnccc2[nH]1 | 20 | 75 | 48 | – | – | – | – | – | –
O=C(NCc1ccc(S(=O)(=O)c2ccccc2)cc1)c1cn2ccnc2cn1 | 13 | 87 | > 10000 | 150 | – | – | – | – | –
O=C(NCc1ccc(S(=O)(=O)c2cc(F)cc(F)c2)cc1)c1cc2ccncc2o1 | 12 | 77 | – | – | – | – | – | – | –

Compound | remaining at 0.5 h, 1 µM [1] [%] | remaining at 0.5 h, 1 µM [2] [%] | IC50 [3] [nM] | IC50 [4] [nM] | Papp A→B at 10 µM [5] [×10⁻⁶ cm/s] | fraction unbound at 4 h, 5 µM [6] | fraction unbound at 4 h, 5 µM [7] | CLint scaled at 1 µM [8] [mL/min/kg] | CLint scaled at 1 µM [9] [mL/min/kg]
O=C(NCc1ccc(S(=O)(=O)c2ccc(F)cc2)cc1)c1cc2cnccc2[nH]1 | 72 | 91 | 16 | 17 | – | – | – | – | –
O=C(/C=C/c1cccnc1)NCCCCC1CCN(C(=O)c2ccccc2)CC1 [DAPORINAD] | 7.7 | 46.7 | – | – | 15 | 0.007 | 0.033 | 67 | 15
O=C(NCc1ccc(S(=O)(=O)c2ccccc2)cc1)c1cnc2nccn2c1 | 30 | 60 | 68 | – | – | – | – | – | –
O=C(NCc1ccc(S(=O)(=O)c2cc(F)cc(F)c2)cc1)c1cc2ccncc2s1 | 32 | 41 | – | – | – | 0.009 | 0.011 | 78 | 16
Cc1cccc(S(=O)(=O)c2ccc(CNC(=O)c3cc4cnccc4[nH]3)cc2)c1 | 32 | 49 | 4 | 8 | – | – | – | – | –
CC(NC(=O)c1cc2cnccc2[nH]1)c1ccc(S(=O)(=O)N2CCCCC2)cc1 (stereo not given) | 0.65 | 34 | > 10000 | > 10000 | – | – | – | – | –
O=C(NCc1ccc(S(=O)(=O)c2ccccc2)cc1)c1cc2cnccc2[nH]1 | 54 | 75 | – | – | – | – | – | – | –
O=C(NCc1ccc(S(=O)(=O)c2ccccc2C(F)(F)F)cc1)c1cc2cnccc2[nH]1 | 41 | 52 | 25 | 24 | – | – | – | – | –
O=C(NCc1ccc(S(=O)(=O)N2CCCCC2)cc1)c1ccn2ccnc2c1 | – | – | > 10000 | 1800 | – | – | – | – | –
O=C(NCc1ccc(S(=O)(=O)c2cc(F)cc(F)c2)cc1)c1cnc2nccn2c1 | 71 | 78 | 3 | – | 5 | 0.122 | 0.133 | 74 | 6
O=C(NCc1ccc(S(=O)(=O)c2ccccc2)cc1)c1ccc2ccncc2c1 | 3.3 | 46 | > 10000 | 610 | – | – | – | – | –
O=C(NCc1ccc(S(=O)(=O)N2CCCCC2)cc1)c1cc2ccncc2s1 | 0.2 | 4.4 | 6 | 11 | – | – | – | – | –
O=C(NCc1ccc(S(=O)(=O)c2ccc(F)c(F)c2)cc1)c1cc2cnccc2[nH]1 | 58 | 100 | 14 | 10 | – | – | – | – | –
O=C(NCc1ccc(S(=O)(=O)c2cccc(F)c2)cc1)c1cc2cnccc2[nH]1 | 44 | 79 | 11 | 5 | – | – | – | – | –
O=C(NCc1ccc(S(=O)(=O)c2ccccc2)cc1)c1cc(-c2cccnc2)no1 | 66 | 69 | > 10000 | 41 | – | – | – | – | –
O=C(NCc1ccc(S(=O)(=O)c2ccc(N3CCOCC3)nc2)cc1)c1cc2cnccc2[nH]1 | 72 | 75 | 1 | 7 | 1 | 0.011 | 0.015 | 57 | –
O=C(NCc1ccc(S(=O)(=O)c2ccccc2)cc1)c1nc2cnccc2[nH]1 | 7.3 | 73 | 5400 | – | – | – | – | – | –
O=C(NCc1ccc(S(=O)(=O)c2ccccc2)cc1)c1nc2ccncc2s1 | 26 | 68 | > 10000 | 210 | – | – | – | – | –
Cn1c(C(=O)NCc2ccc(S(=O)(=O)c3ccccc3)cc2)cc2cnccc21 | 34 | 78 | > 10000 | – | – | – | – | – | –
O=C(NCc1ccc(S(=O)(=O)N2CCCCC2)cc1)c1cc2cnccc2[nH]1 | 1.9 | 44 | 10 | – | – | – | – | – | –
O=C(NCc1ccc(S(=O)(=O)N2CCCCC2)cc1)c1ccn2cncc2c1 | 1 | 54 | > 10000 | 1700 | – | – | – | – | –
O=C(NCc1ccc(S(=O)(=O)N2CCCCC2)cc1)c1cnc2nccn2c1 | 0.28 | 64 | 130 | 3 | – | – | – | – | –
O=C(Nc1ccc(S(=O)(=O)N2CCCCC2)cc1)c1cc2cnccc2[nH]1 | – | – | > 10000 | > 10000 | – | – | – | – | –
O=C(NCc1ccc(S(=O)(=O)N2CCCCC2)cc1)c1cc2ccncc2o1 | 0.14 | 56 | 29 | – | – | – | – | – | –
